Test results taken from patent US4879278A, “Isolation and structural elucidation of the cytostatic linear depsipeptide dolastatin 15” (priority 1989, dated 1989).
In brackets after ≈: the same amount, converted by molar mass. Like-named read-outs stand apart in the source and are kept apart here. Non-standard residues stand in square brackets, D forms with d. Residues, ends and D or L forms follow the SMILES beside them. *: point of attachment. X3 = COC1=CC(=O)N(C(=O)[C@@H](O*)C(C)C)[C@H]1Cc1ccccc1; NMe2Val = CC(C)[C@@H](C(=O)*)N(C)C; NMeV = CN[C@H](C(=O)O)C(C)C

How the values were obtained:
[1] = system: P388 lymphocytic leukemia cell line; experiment: P388 in vitro cell line growth inhibition; type: cell-based, murine
Description: Because of the dolastatin's potency, the sea hare seems to require only vanishingly small quantities (about 1 mg each from 100 kg), making isolation and structural elucidation of these peptides exceptionally challenging. Later another substance was isolated and determined to be a unique linear pentapeptide and was denominated "dolastatin 10". […] The PS System is an excellent predictor of activity against various types of human neoplasms (See: Vendetti et al, Lloydia, 30, 332 et seq (1967) and references cited therein.)

[2] = system: P388 lymphocytic leukemia cell line; conditions: PS leukemia; cited from earlier work

| Structure (SMILES) | ED50 [1] | ED50 [2] |
| --- | --- | --- |
| COC1=CC(=O)N(C(=O)[C@@H](OC(=O)[C@@H]2CCCN2C(=O)[C@@H]2CCCN2C(=O)[C@H](C(C)C)N(C)C(=O)[C@@H](NC(=O)[C@H](C(C)C)N(C)C)C(C)C)C(C)C)[C@H]1Cc1ccccc1 [Dolastatin 15] (NMe2Val-V[NMeV]PP-X3) | 0.0024 µg/mL (≈ 0.00287 µM) |  |
| CC[C@H](C)[C@@H]([C@@H](CC(=O)N1CCC[C@H]1[C@H](OC)[C@@H](C)C(=O)N[C@@H](Cc1ccccc1)c1nccs1)OC)N(C)C(=O)[C@@H](NC(=O)[C@H](C(C)C)N(C)C)C(C)C [dolastatin 10] |  | 46 µg/mL (≈ 58.6 µM) |
